Data taken from PMC3977315 (2010).
Each block holds one molecule with its values, some of them ahead of it.

Columns and labels:
[1] = system: poly(dA)•2poly(dT) (DNA, polymer) A/T; test: UV melting; settings: K+ 150 mM, 10 mM sodium cacodylate, pH 6.8, rdb 1.67
[2] = system: poly(dA)•2poly(dT) (DNA, polymer) A/T; test: fluorescent intercalator displacement; settings: thiazole orange displaced
[3] = system: poly(dA)•2poly(dT) (DNA, polymer) A/T; test: calorimetric/spectroscopic thermodynamic profile; settings: K+ 150 mM; 10 mM sodium cacodylate, 0.5 mM EDTA, pH 5.5, 20 °C
[4] = system: poly(dA)•poly(dT) (DNA, polymer) A/T; test: fluorescent intercalator displacement; settings: K+ 150 mM; Na+ 10 mM; thiazole orange not displaced; highest concentration 10 mM

binding [1]: weak
Compound: NC[C@H]1O[C@H](O[C@H]2[C@H](O)[C@@H](O)[C@H](N)C[C@@H]2N)[C@H](N)[C@@H](O)[C@@H]1O

binding [2]: weak
Compound: NC[C@H]1O[C@H](O[C@H]2[C@H](O[C@@H]3O[C@H](CO)[C@@H](O)[C@H]3O)[C@@H](O)[C@H](N)C[C@@H]2N)[C@H](N)[C@@H](O)[C@@H]1O

KT(20°C) [3]: (2.4±0.1)×10^5 M^−1 | ΔTm3→2 ([1]; 25 μM neomycin, per base): ~ 25 °C | AC50 [4]: > 10 mM
Compound: NC[C@@H]1O[C@H](O[C@H]2[C@@H](O)[C@H](O[C@@H]3[C@@H](O)[C@H](N)C[C@H](N)[C@H]3O[C@H]3O[C@H](CN)[C@@H](O)[C@H](O)[C@H]3N)O[C@@H]2CO)[C@H](N)[C@@H](O)[C@@H]1O
